The text below walks through data of US20040038855A1 (priority 1999, published 2004).

Counter-ions that a name gives are not always drawn.

The term Ki denotes the equilibrium dissociation constant of an inhibitor or competing ligand from its target.

One assay has as its target T1, human 5HT1A receptor (Homo sapiens, UniProt P08908).
T1 construct: The cDNA corresponding to the 5HT1A receptor open reading frames and variable noncoding 5′ and 3′regions; expressed in transfected cells; host or cells: COS7 cells, transient, DEAE-dextran, vector pCEXV3
T1 sequence (P08908 1-422): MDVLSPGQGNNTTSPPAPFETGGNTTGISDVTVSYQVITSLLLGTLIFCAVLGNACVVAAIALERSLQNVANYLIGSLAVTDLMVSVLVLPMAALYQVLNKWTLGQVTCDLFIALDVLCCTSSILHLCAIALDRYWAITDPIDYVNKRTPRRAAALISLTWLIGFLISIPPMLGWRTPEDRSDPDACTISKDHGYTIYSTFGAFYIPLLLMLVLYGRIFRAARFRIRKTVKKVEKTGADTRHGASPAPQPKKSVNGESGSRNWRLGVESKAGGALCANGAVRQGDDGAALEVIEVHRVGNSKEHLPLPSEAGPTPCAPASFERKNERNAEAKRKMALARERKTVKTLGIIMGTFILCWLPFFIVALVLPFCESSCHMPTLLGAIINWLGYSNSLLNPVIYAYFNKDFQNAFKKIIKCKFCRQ
Put plainly: Binding affinity at the human 5HT1A receptor (3H8OHDPAT). The note with it: Table 3e; read-out: h5HT1A Ki. The protocol:
5HT1A Receptor: The cDNA corresponding to the 5HT1A receptor open reading frames and variable noncoding 5′ and 3′regions, was cloned into the eukaryotic expression vector pCEXV3. These constructs were transfected transiently into COS7 cells by the DEAEdextran method (Cullen, 1987), and harvested after 72 hours. Radioligand binding assays were performed as described above for the 5HT2A receptor, except that ^3H8OHDPAT was used as the radioligand and nonspecific binding was determined by the addition of 10 μM mianserin.

A further assay has as its target T2, human α1B adrenoceptor (Homo sapiens, UniProt P35368).
T2 construct: expressed in transfected cells
T2 sequence (P35368 1-520): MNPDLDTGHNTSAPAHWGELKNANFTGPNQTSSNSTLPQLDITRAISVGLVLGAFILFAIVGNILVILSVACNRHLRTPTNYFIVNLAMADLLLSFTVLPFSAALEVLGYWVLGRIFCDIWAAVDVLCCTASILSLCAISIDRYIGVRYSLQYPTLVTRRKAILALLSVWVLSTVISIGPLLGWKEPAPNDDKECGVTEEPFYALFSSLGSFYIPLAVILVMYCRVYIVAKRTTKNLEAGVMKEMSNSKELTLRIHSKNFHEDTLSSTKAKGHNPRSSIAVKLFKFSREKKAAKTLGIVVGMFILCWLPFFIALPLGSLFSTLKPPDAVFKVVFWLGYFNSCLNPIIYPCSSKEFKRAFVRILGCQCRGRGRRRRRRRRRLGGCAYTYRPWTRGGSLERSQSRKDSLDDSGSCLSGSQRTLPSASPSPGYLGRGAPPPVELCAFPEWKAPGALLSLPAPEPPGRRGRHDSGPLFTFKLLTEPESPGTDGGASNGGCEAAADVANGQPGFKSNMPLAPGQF
As to the kind of experiment: Binding affinity at the human α1B adrenergic receptor. To be noted: Table 3d; read-out: hα1B Ki. An excerpt: (§1) Other receptors: Cell membranes expressing human dopamine D1, D2, D4 and rat D3 receptors were purchased through BioSignal, Inc. (Montreal, Canada). Binding assays using the histamine H1 receptor; dopamine receptors; and α1A, α1B, and α2 adrenergic receptors may be carried out according to the procedures described in U.S. Pat. No. 5,780,485, the disclosure of which is hereby incorporated by reference in its entirety into this application. Binding assays using the dopamine D5 receptor may be carried out according to the procedures described in U.S. Pat. No. 5,882,855, the disclosure of which is hereby incorporated by reference in its entirety into this application. Binding assays for the human α1D adrenergic receptor may be carried out according to the procedures described in U.S. Pat. No. 6,156,518, the disclosure of which is hereby incorporated by reference in its entirety into this application.

Another assay deals with rat D3 receptor (Rattus norvegicus, UniProt P19020). As to the kind of experiment: Binding affinity at the rat dopamine D3 receptor. The note with it: Table 3d; read-out: rD3 Ki.
Text: as §1

The target of assay [1] is T3, human dopamine D1 receptor (Homo sapiens, UniProt P21728).
T3 construct: purchased BioSignal, Inc. (Montreal, Canada)
As to the kind of experiment: Binding affinity at the human dopamine D1 receptor. The note with it: Table 3d; read-out: hD1 Ki.
Text: as §1

The target of assay [2] is T4, human dopamine D5 receptor (Homo sapiens, UniProt P21918).
T4 construct: expressed in transfected cells
Put plainly: Binding affinity at the human dopamine D5 receptor. To be noted: Table 3d; read-out: hD5 Ki.
Text: as §1

A further assay concerns the target T5, human 5HT2A receptor (Homo sapiens, UniProt P28223).
T5 construct: expressed in transfected cells; host or cells: COS7 cells, transient, DEAE dextran, vector pCEXV3
As to the kind of experiment: Binding affinity at the human 5HT2A receptor ([3H]ketanserin). To be noted: Table 3e; read-out: h5HT2A Ki. How it is done: Human 5HT2A Receptor: The coding sequence of the human 5HT2A receptor was obtained from a human brain cortex cDNA library, and cloned into the cloning site of pCEXV3 eukaryotic expression vector. This construct was transfected into COS7 cells by the DEAE dextran method (Cullen, 1987). Cells were harvested after 72 hours and lysed by sonication in 5 mM Tris HCl, 5 mM EDTA, pH 7.5. The cell lysates were subjected to centrifugation at 1000 rpm for 5 minutes at 4° C., and the supernatant was subjected to centrifugation at 30,000×g for 20 minutes at 4° C. The pellet was suspended in 50 mM Tris HCl buffer (pH 7.7 at room temperature) containing 10 mM MgSO4, 0.5 mM EDTA, and 0.1% ascorbate. […] Nonspecific binding was defined by the addition of 10 μM mianserin. The bound radioligand was separated by filtration through GF/B filters using a cell harvester.

Assay [3] has as its target T6, human Dopamine D2 receptor (Homo sapiens, UniProt P14416).
T6 construct: purchased BioSignal, Inc. (Montreal, Canada)
As to the kind of experiment: Binding affinity at the human dopamine D2 receptor. The note with it: Table 3d; * = >50000; read-out: hD2 Ki. In short, it runs like this:
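D5 receptor binding is run per one prior patent's protocol, while dopamine and α2 adrenergic binding follow another; human D1 and D2 receptors were supplied as expressing cell membranes.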

T6 sequence (P14416 whole entry): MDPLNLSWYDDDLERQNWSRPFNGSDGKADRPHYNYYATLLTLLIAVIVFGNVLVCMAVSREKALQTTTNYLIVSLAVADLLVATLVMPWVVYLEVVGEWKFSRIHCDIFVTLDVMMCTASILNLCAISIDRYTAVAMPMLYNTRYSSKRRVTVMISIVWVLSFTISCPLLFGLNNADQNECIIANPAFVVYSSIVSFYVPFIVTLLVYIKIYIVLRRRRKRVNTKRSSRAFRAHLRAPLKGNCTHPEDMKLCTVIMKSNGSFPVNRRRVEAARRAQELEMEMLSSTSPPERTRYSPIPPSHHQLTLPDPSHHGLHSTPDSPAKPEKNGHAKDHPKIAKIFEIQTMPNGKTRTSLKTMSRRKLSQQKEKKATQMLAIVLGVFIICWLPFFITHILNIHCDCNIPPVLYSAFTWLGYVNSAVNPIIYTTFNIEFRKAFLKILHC
rat D3 receptor, sequence (P19020 whole entry): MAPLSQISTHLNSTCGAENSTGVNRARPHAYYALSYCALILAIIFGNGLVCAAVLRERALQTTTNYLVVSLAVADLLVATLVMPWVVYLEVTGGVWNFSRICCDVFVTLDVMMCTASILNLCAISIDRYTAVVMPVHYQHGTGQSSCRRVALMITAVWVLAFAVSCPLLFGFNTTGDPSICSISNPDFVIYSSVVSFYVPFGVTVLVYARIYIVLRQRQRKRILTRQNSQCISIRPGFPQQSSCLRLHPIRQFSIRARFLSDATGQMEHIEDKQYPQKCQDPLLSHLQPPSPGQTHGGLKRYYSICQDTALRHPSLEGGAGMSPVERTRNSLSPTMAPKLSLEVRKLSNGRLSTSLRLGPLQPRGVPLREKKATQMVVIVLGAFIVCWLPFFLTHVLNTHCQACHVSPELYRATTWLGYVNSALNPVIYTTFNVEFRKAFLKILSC
T4 sequence (P21918 whole entry): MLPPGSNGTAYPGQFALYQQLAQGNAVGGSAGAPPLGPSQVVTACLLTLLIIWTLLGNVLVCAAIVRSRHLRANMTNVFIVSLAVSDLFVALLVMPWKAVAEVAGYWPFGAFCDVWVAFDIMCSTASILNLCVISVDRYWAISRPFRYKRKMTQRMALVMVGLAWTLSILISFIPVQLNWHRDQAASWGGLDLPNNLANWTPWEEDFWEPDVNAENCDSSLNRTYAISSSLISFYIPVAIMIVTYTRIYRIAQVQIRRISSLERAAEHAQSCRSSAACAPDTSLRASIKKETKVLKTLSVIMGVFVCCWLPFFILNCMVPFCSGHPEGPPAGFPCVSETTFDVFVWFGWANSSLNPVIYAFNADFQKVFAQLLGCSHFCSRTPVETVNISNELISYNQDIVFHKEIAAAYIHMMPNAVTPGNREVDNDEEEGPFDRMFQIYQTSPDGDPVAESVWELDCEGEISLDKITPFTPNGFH
T5 sequence (P28223 whole entry): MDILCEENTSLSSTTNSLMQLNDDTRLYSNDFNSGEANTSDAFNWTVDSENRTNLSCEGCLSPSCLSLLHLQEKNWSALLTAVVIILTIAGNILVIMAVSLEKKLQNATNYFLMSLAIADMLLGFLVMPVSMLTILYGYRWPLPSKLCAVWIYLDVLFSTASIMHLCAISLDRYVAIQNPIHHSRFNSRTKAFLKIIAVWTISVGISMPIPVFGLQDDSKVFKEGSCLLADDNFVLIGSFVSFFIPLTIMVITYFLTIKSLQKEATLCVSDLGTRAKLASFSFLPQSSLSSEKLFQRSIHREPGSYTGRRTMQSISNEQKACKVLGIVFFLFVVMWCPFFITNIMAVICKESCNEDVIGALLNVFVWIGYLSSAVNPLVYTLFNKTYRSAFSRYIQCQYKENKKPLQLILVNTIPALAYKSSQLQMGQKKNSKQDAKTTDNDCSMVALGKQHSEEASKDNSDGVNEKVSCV
T3 sequence (P21728 whole entry): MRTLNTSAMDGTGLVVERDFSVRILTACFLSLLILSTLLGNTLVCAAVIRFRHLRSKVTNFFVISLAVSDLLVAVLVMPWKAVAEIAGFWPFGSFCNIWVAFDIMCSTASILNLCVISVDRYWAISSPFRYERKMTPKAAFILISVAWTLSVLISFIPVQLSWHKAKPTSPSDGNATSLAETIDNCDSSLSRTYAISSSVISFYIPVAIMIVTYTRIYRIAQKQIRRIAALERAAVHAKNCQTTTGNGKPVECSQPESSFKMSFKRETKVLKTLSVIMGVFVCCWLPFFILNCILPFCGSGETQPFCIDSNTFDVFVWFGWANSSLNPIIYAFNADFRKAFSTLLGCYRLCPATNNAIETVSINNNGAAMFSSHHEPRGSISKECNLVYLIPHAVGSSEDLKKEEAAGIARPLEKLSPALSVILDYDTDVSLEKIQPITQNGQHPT

Turning to “2-(3,4-DIFLUOROPHENYL)4,5-DIHYDROIMIDAZOLE-1-CARBOXYLIC ACID {3-[4-PHENYL-4-(4-BROMO-5-METHYLTHIOPNEN-2-YL)]-PROPYL}-AMIDE [Example 19]”, the Ki stood at 7.94 µM at human 5HT1A receptor and 0.104 µM on human α1B adrenoceptor.

With `COC(=O)C1=C(C)NC(=O)N(C(=O)NCCCN2CCC3(CC2)OCc2ccccc23)C1c1ccc2nonc2c1` (single isomer, unassigned) [Example 18, HYDROCHLORIDE], the Ki on rat D3 receptor was 1.22 µM; in assay [1], 0.596 µM; in assay [2] it was 2.54 µM; at human 5HT2A receptor it was 1.57 µM; in assay [3], 0.624 µM; at human 5HT1A receptor, 1.24 µM. On human α1B adrenoceptor, the Ki came to 0.418 µM.

On to `COCC1=C(C(=O)OC)C(c2ccc(F)c(F)c2)N(C(=O)NCCCN2CCC(c3cccc(NC(C)=O)c3)CC2)C(=O)N1` (single isomer, unassigned; (-)) [Example 1, (−)-1,2,3,6-TETRAHYDRO-1-{N-[4-(3,-ACETAMIDO)-PHENYLPIPERIDIN-1-YL]PROPYL}CARBOXAMIDO-4-METHOXYMETHYL-6-(3,4-DIFLUORO-PHENYL)-2-OXOPYRIMIDINE-5-CARBOXYLIC ACID METHYL ESTER], for which the Ki at human α1B adrenoceptor turned out to be 9.03 µM.

`COCC1=C(C(=O)OC)[C@H](c2ccc(F)c(F)c2)N(C(=O)NCCCN2CCC(c3cccc(NC(C)=O)c3)CC2)C(=O)N1` [Example 10, (+)-1,2,3,6-TETRAHYDRO-1-{N-[4-(3,-ACETAMIDO)-PHENYLPIPERIDIN-1-YL]PROPYL}CARBOXAMIDO-4-METHOXYMETHYL-6-(3,4-DIFLUORO-PHENYL)-2-OXOPYRIMIDINE-5-CARBOXYLIC ACID METHYL ESTER]: the inhibitory constant (Ki) on rat D3 receptor is 5.89 µM; in assay [1], 1.93 µM; in assay [2], 0.773 µM; in assay [3], more than 50 µM; at human α1B adrenoceptor, 11.3 µM.

As to `COC(=O)C1=C(C)NC(=O)N(C(=O)NCCCN2CCC3(CC2)OCc2ccccc23)C1c1ccc(F)c(F)c1` (stereo not drawn) [Example 20, 4-(3,4-DIFLUORPHENYL)-6-METHYL-2-OXO-3-{[3-(4-SPIRO[ISOBENZOFURAN-1(3H),4′-PIPERIDINE]PROPYL}-1,2,3,4-TETRAHYDROPYRIMIDINE-5-CARBOXYLIC ACID METHYL ESTER], the values for the inhibition constant (Ki) at human 5HT2A receptor, on human 5HT1A receptor and on human α1B adrenoceptor were 2.82 µM, 2.19 µM and 0.407 µM, respectively.
